Laboratory results from the supplement of paper PMC11208160.
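Further: IS621 bridge recombinase in Escherichia coli cells against a fixed T5 target plasmid.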

Test: recombinant UMI read abundance after kanamycin selection (control-corrected) (log10(CPM+1)); higher = more efficient recombination; extreme values may be limits of the assay; sequences stand for … in AGTGCAGAGAAAATCGGCCAGTTTTCTCTGCCTGCAGTCCGCATGCCGTGGGACCCCTTGGGTTCTAACCTGTTGCCTAGATTTATGCAGCGGACTGCCTTTCTCCCAAAGTGATAAACCGG…AGGTTGGTTTCACT; site = the 11-nt donor
In short: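 The measure is log10(CPM+1) for recombinant UMIs. These were PCR-amplified across the donor–target junction and sequenced after Escherichia coli carrying a donor and donor-binding-loop pair library and a target plasmid with T7-inducible IS621 bridge recombinase was plated on IPTG (0.07 mM) plus kanamycin or unselected. CPM were averaged over two replicates and scaled by control-derived factors.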
In the case of “CTTCCTACATGGACCGGTTTTCCCGGTAATCCGTATTTGAG (site CTGCCTACTCT)”, the “recombinant UMI read abundance (log10)” value was 0.0339.
With “CTTCCTACATGGACCGGTTTTCCCGGTAATCCGTATTTGAG (site CTTCCTACTCT)” the “recombinant UMI read abundance (log10)” value was 0.0166.
With “CTTCGAGCATGGACCGGTTTTCCCGGTAATCCGTATTTGCA (site ATTCGAGCTTG)” the “recombinant UMI read abundance (log10)” value was 0.00677.
With “CTTCGAGCATGGACCGGTTTTCCCGGTAATCCGTATTTGCA (site CTTCGAGCTTG)” the “recombinant UMI read abundance (log10)” value was 1.03.
With “CTTCGAGCATGGACCGGTTTTCCCGGTAATCCGTATTTGCA (site GTTCGAGCTTG)” the “recombinant UMI read abundance (log10)” value was 0.
For “CTTCGAGCATGGACCGGTTTTCCCGGTAATCCGTATTTGCA (site TTTCGAGCTTG)”, the “recombinant UMI read abundance (log10)” value was 0.
In the case of “CTTCTACCATGGACCGGTTTTCCCGGTAATCCGTATTTGCT (site CTACTACCTAG)”, the “recombinant UMI read abundance (log10)” value was 0.
For “CTTCTACCATGGACCGGTTTTCCCGGTAATCCGTATTTGCT (site CTCCTACCTAG)”, the “recombinant UMI read abundance (log10)” value was 0.00753.
For “CTTCTACCATGGACCGGTTTTCCCGGTAATCCGTATTTGCT (site CTGCTACCTAG)”, the “recombinant UMI read abundance (log10)” value was 0.
With “CTTCTACCATGGACCGGTTTTCCCGGTAATCCGTATTTGCT (site CTTCTACCTAG)” the “recombinant UMI read abundance (log10)” value was 0.00449.
With “CTTCTATCATGGACCGGTTTTCCCGGTAATCCGTATTTGGT (site CTTCTATCTAC)” the “recombinant UMI read abundance (log10)” value was 1.58.
With “CTTCTCCCATGGACCGGTTTTCCCGGTAATCCGTATTTGTA (site CTTCTCACTTA)” the “recombinant UMI read abundance (log10)” value was 0.0088.
In the case of “CTTCTCCCATGGACCGGTTTTCCCGGTAATCCGTATTTGTA (site CTTCTCCCTTA)”, the “recombinant UMI read abundance (log10)” value was 0.487.
In the case of “CTTCTCCCATGGACCGGTTTTCCCGGTAATCCGTATTTGTA (site CTTCTCGCTTA)”, the “recombinant UMI read abundance (log10)” value was 0.0148.
In the case of “CTTCTCCCATGGACCGGTTTTCCCGGTAATCCGTATTTGTA (site CTTCTCTCTTA)”, the “recombinant UMI read abundance (log10)” value was 0.837.
In the case of “CTTCTCGCATGGACCGGTTTTCCCGGTAATCCGTATTTGCG (site CTTCTCGCTCG)”, the “recombinant UMI read abundance (log10)” value was 0.0091.
With “CTTGCCCCATGGACCGGTTTTCCCGGTAATCCGTATTTGTA (site CTTGCCCCTTA)” the “recombinant UMI read abundance (log10)” value was 0.366.
With “CTTGCTTCATGGACCGGTTTTCCCGGTAATCCGTATTTGAT (site CTTGCTTCTAT)” the “recombinant UMI read abundance (log10)” value was 0.0131.
With “CTTGGAACATGGACCGGTTTTCCCGGTAATCCGTATTTGTT (site CATGGAACTAA)” the “recombinant UMI read abundance (log10)” value was 0.791.
With “CTTGGAACATGGACCGGTTTTCCCGGTAATCCGTATTTGTT (site CCTGGAACTAA)” the “recombinant UMI read abundance (log10)” value was 0.00748.
In the case of “CTTGGAACATGGACCGGTTTTCCCGGTAATCCGTATTTGTT (site CGTGGAACTAA)”, the “recombinant UMI read abundance (log10)” value was 0.00508.
In the case of “CTTGGAACATGGACCGGTTTTCCCGGTAATCCGTATTTGTT (site CTTGGAACTAA)”, the “recombinant UMI read abundance (log10)” value was 1.36.
For “CTTGTAACATGGACCGGTTTTCCCGGTAATCCGTATTTGCA (site CTTGTAACTTG)”, the “recombinant UMI read abundance (log10)” value was 0.147.
In the case of “CTTGTATCATGGACCGGTTTTCCCGGTAATCCGTATTTGAC (site CTAGTATCTGT)”, the “recombinant UMI read abundance (log10)” value was 0.
For “CTTGTATCATGGACCGGTTTTCCCGGTAATCCGTATTTGAC (site CTCGTATCTGT)”, the “recombinant UMI read abundance (log10)” value was 0.
For “CTTGTATCATGGACCGGTTTTCCCGGTAATCCGTATTTGAC (site CTGGTATCTGT)”, the “recombinant UMI read abundance (log10)” value was 0.
For “CTTGTATCATGGACCGGTTTTCCCGGTAATCCGTATTTGAC (site CTTGTATCTGT)”, the “recombinant UMI read abundance (log10)” value was 0.
In the case of “CTTGTATCATGGACCGGTTTTCCCGGTAATCCGTATTTGGC (site CTAGTATCTGT)”, the “recombinant UMI read abundance (log10)” value was 0.315.
In the case of “CTTGTATCATGGACCGGTTTTCCCGGTAATCCGTATTTGGC (site CTTGTATCTGC)”, the “recombinant UMI read abundance (log10)” value was 0.486.
In the case of “CTTTAAACATGGACCGGTTTTCCCGGTAATCCGTATTTGTC (site CTTTAAACTGA)”, the “recombinant UMI read abundance (log10)” value was 0.
In the case of “CTTTTCTCATGGACCGGTTTTCCCGGTAATCCGTATTTGTA (site CTTATCTCTTA)”, the “recombinant UMI read abundance (log10)” value was 0.
In the case of “CTTTTCTCATGGACCGGTTTTCCCGGTAATCCGTATTTGTA (site CTTCTCTCTTA)”, the “recombinant UMI read abundance (log10)” value was 0.274.
In the case of “CTTTTCTCATGGACCGGTTTTCCCGGTAATCCGTATTTGTA (site CTTGTCTCTTA)”, the “recombinant UMI read abundance (log10)” value was 0.00384.
With “CTTTTCTCATGGACCGGTTTTCCCGGTAATCCGTATTTGTA (site CTTTTCTCTTA)” the “recombinant UMI read abundance (log10)” value was 0.0916.
For “GAAACTACATGGACCGGTTTTCCCGGTAATCCGTATTTGCC (site GAAACTACTGG)”, the “recombinant UMI read abundance (log10)” value was 1.88.
In the case of “GAACACCCATGGACCGGTTTTCCCGGTAATCCGTATTTGGA (site GAACACCCTTC)”, the “recombinant UMI read abundance (log10)” value was 0.00915.
With “GAACATACATGGACCGGTTTTCCCGGTAATCCGTATTTGAA (site GAACATACTTT)” the “recombinant UMI read abundance (log10)” value was 1.69.
For “GAACATTCATGGACCGGTTTTCCCGGTAATCCGTATTTGTT (site GAAAATTCTAA)”, the “recombinant UMI read abundance (log10)” value was 0.
In the case of “GAACATTCATGGACCGGTTTTCCCGGTAATCCGTATTTGTT (site GAACATTCTAA)”, the “recombinant UMI read abundance (log10)” value was 2.03.
For “GAACATTCATGGACCGGTTTTCCCGGTAATCCGTATTTGTT (site GAAGATTCTAA)”, the “recombinant UMI read abundance (log10)” value was 0.
In the case of “GAACATTCATGGACCGGTTTTCCCGGTAATCCGTATTTGTT (site GAATATTCTAA)”, the “recombinant UMI read abundance (log10)” value was 0.0114.
In the case of “GAACCGACATGGACCGGTTTTCCCGGTAATCCGTATTTGGT (site GAACCGACTAC)”, the “recombinant UMI read abundance (log10)” value was 0.724.
For “GAACGGCCATGGACCGGTTTTCCCGGTAATCCGTATTTGCA (site GAAAGGCCTTG)”, the “recombinant UMI read abundance (log10)” value was 0.
For “GAACGGCCATGGACCGGTTTTCCCGGTAATCCGTATTTGCA (site GAACGGCCTTG)”, the “recombinant UMI read abundance (log10)” value was 0.812.
For “GAACGGCCATGGACCGGTTTTCCCGGTAATCCGTATTTGCA (site GAAGGGCCTTG)”, the “recombinant UMI read abundance (log10)” value was 0.
For “GAACGGCCATGGACCGGTTTTCCCGGTAATCCGTATTTGCA (site GAATGGCCTTG)”, the “recombinant UMI read abundance (log10)” value was 0.
For “GAACTCACATGGACCGGTTTTCCCGGTAATCCGTATTTGCT (site GAACTCACTAG)”, the “recombinant UMI read abundance (log10)” value was 2.53.
For “GAACTGGCATGGACCGGTTTTCCCGGTAATCCGTATTTGCG (site GAACTGGCTCG)”, the “recombinant UMI read abundance (log10)” value was 0.715.
With “GAACTTACATGGACCGGTTTTCCCGGTAATCCGTATTTGCG (site GAACTTACTCG)” the “recombinant UMI read abundance (log10)” value was 1.85.
With “GAAGACTCATGGACCGGTTTTCCCGGTAATCCGTATTTGTT (site GAAGAATCTAA)” the “recombinant UMI read abundance (log10)” value was 0.423.
In the case of “GAAGACTCATGGACCGGTTTTCCCGGTAATCCGTATTTGTT (site GAAGACTCTAA)”, the “recombinant UMI read abundance (log10)” value was 2.84.
For “GAAGACTCATGGACCGGTTTTCCCGGTAATCCGTATTTGTT (site GAAGAGTCTAA)”, the “recombinant UMI read abundance (log10)” value was 0.00964.
In the case of “GAAGACTCATGGACCGGTTTTCCCGGTAATCCGTATTTGTT (site GAAGATTCTAA)”, the “recombinant UMI read abundance (log10)” value was 0.506.
With “GAAGGAGCATGGACCGGTTTTCCCGGTAATCCGTATTTGTA (site GAAGGAGCTTA)” the “recombinant UMI read abundance (log10)” value was 2.33.
With “GAAGGGCCATGGACCGGTTTTCCCGGTAATCCGTATTTGCA (site GAAAGGCCTTG)” the “recombinant UMI read abundance (log10)” value was 0.
In the case of “GAAGGGCCATGGACCGGTTTTCCCGGTAATCCGTATTTGCA (site GAACGGCCTTG)”, the “recombinant UMI read abundance (log10)” value was 0.
With “GAAGGGCCATGGACCGGTTTTCCCGGTAATCCGTATTTGCA (site GAAGGGCCTTG)” the “recombinant UMI read abundance (log10)” value was 0.
For “GAAGGGCCATGGACCGGTTTTCCCGGTAATCCGTATTTGCA (site GAATGGCCTTG)”, the “recombinant UMI read abundance (log10)” value was 0.
With “GAAGGTTCATGGACCGGTTTTCCCGGTAATCCGTATTTGTT (site GAAGATTCTAA)” the “recombinant UMI read abundance (log10)” value was 1.32.
For “GAAGGTTCATGGACCGGTTTTCCCGGTAATCCGTATTTGTT (site GAAGCTTCTAA)”, the “recombinant UMI read abundance (log10)” value was 0.00355.
For “GAAGGTTCATGGACCGGTTTTCCCGGTAATCCGTATTTGTT (site GAAGGTTCTAA)”, the “recombinant UMI read abundance (log10)” value was 2.35.
For “GAAGGTTCATGGACCGGTTTTCCCGGTAATCCGTATTTGTT (site GAAGTTTCTAA)”, the “recombinant UMI read abundance (log10)” value was 0.
In the case of “GAAGTCACATGGACCGGTTTTCCCGGTAATCCGTATTTGGG (site AAAGTCACTCC)”, the “recombinant UMI read abundance (log10)” value was 0.11.
With “GAAGTCACATGGACCGGTTTTCCCGGTAATCCGTATTTGGG (site CAAGTCACTCC)” the “recombinant UMI read abundance (log10)” value was 0.0174.
With “GAAGTCACATGGACCGGTTTTCCCGGTAATCCGTATTTGGG (site GAAGTCACTCC)” the “recombinant UMI read abundance (log10)” value was 0.412.
For “GAAGTCACATGGACCGGTTTTCCCGGTAATCCGTATTTGGG (site TAAGTCACTCC)”, the “recombinant UMI read abundance (log10)” value was 0.221.
In the case of “GAAGTGACATGGACCGGTTTTCCCGGTAATCCGTATTTGCG (site GAAGTGACTCG)”, the “recombinant UMI read abundance (log10)” value was 2.14.
With “GAATAAGCATGGACCGGTTTTCCCGGTAATCCGTATTTGTG (site GAATAAGCTCA)” the “recombinant UMI read abundance (log10)” value was 1.99.
For “GAATATCCATGGACCGGTTTTCCCGGTAATCCGTATTTGCT (site GAATATCCTAG)”, the “recombinant UMI read abundance (log10)” value was 1.3.
With “GAATATCCATGGACCGGTTTTCCCGGTAATCCGTATTTGCT (site GACTATCCTAG)” the “recombinant UMI read abundance (log10)” value was 0.
For “GAATATCCATGGACCGGTTTTCCCGGTAATCCGTATTTGCT (site GAGTATCCTAG)”, the “recombinant UMI read abundance (log10)” value was 0.
For “GAATATCCATGGACCGGTTTTCCCGGTAATCCGTATTTGCT (site GATTATCCTAG)”, the “recombinant UMI read abundance (log10)” value was 0.
For “GAATCATCATGGACCGGTTTTCCCGGTAATCCGTATTTGCT (site CGATCATCTAG)”, the “recombinant UMI read abundance (log10)” value was 1.88.
With “GAATCATCATGGACCGGTTTTCCCGGTAATCCGTATTTGCT (site GAATCATCTAG)” the “recombinant UMI read abundance (log10)” value was 1.95.
For “GAATCGTCATGGACCGGTTTTCCCGGTAATCCGTATTTGCA (site GAATCGTCTTG)”, the “recombinant UMI read abundance (log10)” value was 2.71.
